Assay results: patent US7297696B2, “Antagonists of MCP-1 function and methods of use thereof” (Telik, Inc., priority 2001, dated 2007)

Assays:
Type in all cases: in vivo
apoE-deficient mice = test: Apolipoprotein E-deficient mouse model of atherosclerosis; conditions: 50 mg/kg as food admixture for 8 weeks, high-fat diet; percent of total cross-sectional wall area
Protocol: Apolipoprotein E (apoE) is a component of several plasma lipoproteins, including chylomicrons, VLDL, and HDL. Receptor-mediated catabolism of these lipoprotein particles is mediated through the interaction of apoE with the LDL receptor (LDLR) or with LDLR-related protein (LRP). […] The efficacy of the compounds of the present invention was also evaluated using this animal model.
Male, 4 week-old apoE-deficient mice were fed on high-fat diet (15% fat, 1.25% cholesterol). The test compound was administered as food admixture for 8 weeks. At 12 weeks old, the mice were fasted for 4 hours and then sacrificed under ether anesthesia. […]
To determine cross-sectional lesion areas, the hearts were embedded in OCT compound and sectioned at 10 μm using cryostat. The sections were stained with oil red O. Each section of the aortic valve was evaluated for oil red O staining by capturing images directly from a RGB camera attached to a light microscope; image analysis was performed with the IPAP-WIN software (Sumika Tekno, Japan). Five sections were examined for each animal, and the sum of the lesion areas was calculated and expressed as the percent of the total cross-sectional wall area. Total cholesterol was determined with a Determiner assay kit (Kyowa Medex, Japan).

ICR male mice = test: Thioglycollate-induced inflammation model; conditions: peritoneal cavity, 96 h; 10 mg/kg subcutaneous at 0 h, 3 h and 16 hours
Protocol: 3% Brewer's thioglycollate broth (Difco, Detroit, Mich.) was injected into the petitoneal cavity of ICR male mice, followed by subcutaneous administration of the test compounds at the same dose after 0 h, 3 h and 16 hours. After 96 h, the number of total elicited cells and MOMA2-positive cells in the peritoneal cavity was analyzed using an EPICS XL Beckman Coulter.

male ICR mice = test: Caerulein-induced pancreatitis; conditions: 20 mg/kg orally after caerulein injection, then at 3 h and 6 h; blood after 15 h
Protocol: Caerulein was injected intraperitoneally to male ICR mice every 1 h for 6 h. The test compound was given orally immediately after the caerulein injection, and then again at 3 h and 6 h. After 15 h, the mice were sacrificed and their blood was collected and analyzed for serum amylase activity as a marker of pancreatitis.

Compound	% Atherosclerotic Lesion (mean ± SD) (apoE-deficient mice)	MOMA2-positive Cells (ICR male mice)	Total Cells (ICR male mice)	Serum Amylase Level (U, Caraway, mean ± SD) (male ICR mice)
O=C(NC(=O)c1ccc2c(c1)OCCO2)Nc1ccc(C(=O)[O-])cc1.[Na+] [Compound 59, Sodium 4-{[(2H,3H-benzo[3,4-e]1,4-dioxin-6-ylcarbonylamino)carbonyl]amino}benzoate]	21.08 ± 6.86%	13.2 ± 1.4 ×10^6	17.3 ± 1.7 ×10^6	–
O=C(O)COc1ccc(NC(=O)NC(=O)c2ccc3c(c2)OCCO3)cc1Cl [Compound 55, 2-(4-{[(2H,3H-Benzo[e]1,4-dioxan-6-ylcarbonylamino)carbonyl]amino}-2-chlorophenoxy)acetic acid]	17.80 ± 3.43 %	10.1 ± 1.5 ×10^6	14.1 ± 1.6 ×10^6	–
O=C(NC(=O)c1ccc2c(c1)OCCO2)Nc1ccc(C(=O)[O-])c(Cl)c1.[Na+] [Compound 57, Sodium 4-{[(2H,3H-benzo[e]1,4-dioxan-6-ylcarbonylamino)carbonyl]amino}-2-chlorobenzoate]	–	–	–	551 ± 157 U, Caraway
